Columns and labels:
ABL T315I BAF3 cells = molecular target: T1, ABL T315I BAF3 cells (Homo sapiens, UniProt P00519, T315I, cells depend on it); experiment: 96-well XTT cell survival assay, BaF3 ABL T315I; type: cell-based; details: 72 hours, read-out: CELL BIO ABL T315I BAF3 XTT (IC50)
T1 construct: ABL T315I BAF3; fused on or other part: P11274 (Breakpoint cluster region protein)
Protocol: (§1) MV4-11 and THP cells were maintained in Iscove's Modified Dulbecco's Medium supplemented with 10% fetal bovine serum (FBS) and penicillin/streptomycin, Ba/F3 cells were maintained in RPMI 1640 supplemented with 10% FBS, penicillin/streptomycin and 5 ng/ml recombinant mouse IL-3.
(§2) Compounds were tested in the following assays in duplicate.
(§3) 96-well XTT assay: Cells (e.g. BaF3 315I, M3511, or E255K cells) were grown in growth media containing various concentrations of compounds (duplicates) on a 96-well plate for 72 hours at 37° C. The starting cell number was 5000-8000 cells per well and volume was 120 μl. At the end of the 72-hour incubation, 40 μl of XTT labeling mixture (50:1 solution of sodium 3′-[1-(phenylamino-carbonyl)-3,4-tetrazolium]-bis(4-methoxy-6-nitro) benzene sulfonic acid hydrate and Electron-coupling reagent: PMS (N-methyl dibenzopyrazine methyl sulfate) were added to each well of the plate. After an additional 2-6 hours of incubation at 37° C., the absorbance reading at 405 nm with background correction at 650 nm was measured with a spectrophotometer.

ABL P210WT BAF3 cells = molecular target: T2, ABL P210WT BAF3 cells (Homo sapiens, UniProt P00519); experiment: 96-well XTT cell survival assay, BaF3 ABL P210WT; type: cell-based; details: ABL P210 WT, 72 hours, read-out: CELL BIO ABL P210WT BAF3 XTT (IC50)
T2 construct: ABL P210WT BAF3; fused on or other part: P11274 (Breakpoint cluster region protein)
Protocol: as §1, §2, §3

[1] = molecular target: T3, purified and unphosphorylated T315I Abl kinase domain (ABL_T315I_0P) (Mus musculus, UniProt P00520, T315I); experiment: c-Abl T315I (unphosphorylated kinase domain) pyruvate kinase/lactate dehydrogenase coupled enzyme assay; type: biochemical; details: 10 μM ATP
T3 construct: The c-Abl T3151 KD (kinase domain) was purified as follows; Met-Ser-Leu (vector-derived residues) (N); made in house; host or cells: E. coli BL21(DE3) strains (Codon+RIL, or pSA0145 for the lambda phosphatase co-expression plasmid)
T3 sequence (P00520 242-493 T315I limits assumed): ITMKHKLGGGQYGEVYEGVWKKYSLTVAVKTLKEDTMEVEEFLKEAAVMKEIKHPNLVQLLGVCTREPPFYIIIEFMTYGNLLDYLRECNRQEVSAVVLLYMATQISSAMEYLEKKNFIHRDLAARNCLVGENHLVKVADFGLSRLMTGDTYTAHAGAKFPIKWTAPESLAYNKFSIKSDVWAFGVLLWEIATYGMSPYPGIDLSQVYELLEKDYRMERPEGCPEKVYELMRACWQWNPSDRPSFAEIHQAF

Row | SMILES | ABL_T315I_0P (IC50) [1] | GI50 (ABL T315I BAF3 cells) [nM] | GI50 (ABL P210WT BAF3 cells) [nM]
1 | CN(C)C(=O)c1cncc(-c2cnc3[nH]cc(-c4ccc(F)cc4F)c3c2Cl)c1 [5-[4-Chloro-3-(2,4-difluoro-phenyl)-1H-pyrrolo[2,3-b]pyridin-5-yl]-N,N-dimethyl-nicotinamide] | C (0.1-0.01 μM) | > 1000 | > 1000
2 | CN(C)C(=O)C(O)c1cncc(-c2cnc3[nH]cc(-c4ccccc4)c3c2Cl)c1 (stereo not drawn) [2-[5-(4-Chloro-3-phenyl-1H-pyrrolo[2,3-b]pyridin-5-yl)-pyridin-3-yl]-2-hydroxy-N,N-dimethyl-acetamide] | D (<0.01 μM) | 100 to 1000 | 100 to 1000
3 | CCc1c(-c2cncc(C(O)C(=O)N(C)C)c2)cnc2[nH]cc(-c3ccccc3OC)c12 (stereo not drawn) [2-{5-[4-Ethyl-3-(2-methoxy-phenyl)-1H-pyrrolo[2,3-b]pyridin-5-yl]-pyridin-3-yl}-2-hydroxy-N,N-dimethyl-acetamide] | D (<0.01 μM) | 100 to 1000 | 100 to 1000
4 | OC(c1cccc(-c2cnc3[nH]cc(-c4ccc(F)cc4)c3c2Cl)c1)c1ncco1 (stereo not drawn) [{3-[4-Chloro-3-(4-fluoro-phenyl)-1H-pyrrolo[2,3-b]pyridin-5-yl]-phenyl}-oxazol-2-yl-methanol] | C (0.1-0.01 μM) | > 1000 | > 1000
5 | COc1ccccc1-c1c[nH]c2ncc(-c3cncc(C(O)C(=O)N(C)C)c3)c(C)c12 (stereo not drawn) [2-Hydroxy-2-{5-[3-(2-methoxy-phenyl)-4-methyl-1H-pyrrolo[2,3-b]pyridin-5-yl]-pyridin-3-yl}-N,N-dimethyl-acetamide] | D (<0.01 μM) | 10 to 100 | 10 to 100
6 | CN(C)C(=O)c1nc(-c2cnc3[nH]cc(-c4ccc(F)cc4)c3c2Cl)cnc1N [3-amino-6-[4-chloro-3-(4-fluoro-phenyl)-1H-pyrrolo[2,3-b]pyridin-5-yl]-pyrazine-2-carboxylic acid dimethylamide] | C (0.1-0.01 μM) | 100 to 1000 | 100 to 1000
7 | CN(C)C(=O)C(O)c1cncc(-c2cnc3[nH]cc(-c4ccccc4Cl)c3c2Cl)c1 (stereo not drawn) [2-{5-[4-Chloro-3-(2-chloro-phenyl)-1H-pyrrolo[2,3-b]pyridin-5-yl]-pyridin-3-yl}-2-hydroxy-N,N-dimethyl-acetamide] | D (<0.01 μM) | 100 to 1000 | 100 to 1000
8 | Cc1noc(C)c1-c1c[nH]c2ncc(-c3cncc(C(=O)N(C)C)c3)c(Cl)c12 [5-[4-Chloro-3-(3,5-dimethyl-isoxazol-4-yl)-1H-pyrrolo[2,3-b]pyridin-5-yl]-N,N-dimethyl-nicotinamide] | B (1.0-0.1 μM) | > 1000 | > 1000
9 | COc1ccccc1-c1n[nH]c2ncc(-c3cncc(C(O)C(=O)N(C)C)c3)c(Cl)c12 (stereo not drawn) [2-{5-[4-Chloro-3-(2-methoxy-phenyl)-1H-pyrazolo[3,4-b]pyridin-5-yl]-pyridin-3-yl}-2-hydroxy-N,N-dimethyl-acetamide] | C (0.1-0.01 μM) | 100 to 1000 | 100 to 1000
10 | CN(C)C(=O)c1cc(-c2cnc3[nH]cc(-c4cc[nH]n4)c3c2Cl)cnc1N [2-Amino-5-[4-chloro-3-(1H-pyrazol-3-yl)-1H-pyrrolo[2,3-b]pyridin-5-yl]-N,N-dimethyl-nicotinamide] | C (0.1-0.01 μM) | > 1000 | > 1000
11 | COc1ccncc1-c1c[nH]c2ncc(-c3cncc(C(O)C(=O)N(C)C)c3)c(Cl)c12 (stereo not drawn) [2-{5-[4-Chloro-3-(4-methoxy-pyridin-3-yl)-1H-pyrrolo[2,3-b]pyridin-5-yl]-pyridin-3-yl}-2-hydroxy-N,N-dimethyl-acetamide] | D (<0.01 μM) | 100 to 1000 | 100 to 1000

Now from value to compound, other results behind:

Row | ABL_T315I_0P (IC50) [1] | SMILES | GI50 (ABL T315I BAF3 cells) [nM] | GI50 (ABL P210WT BAF3 cells) [nM]
12 | D (<0.01 μM) | OC(c1cncc(-c2cnc3[nH]cc(-c4cccc(F)c4F)c3c2Cl)c1)C1CC1 (stereo not drawn) [{5-[4-Chloro-3-(2,3-difluoro-phenyl)-1H-pyrrolo[2,3-b]pyridin-5-yl]-pyridin-3-yl}-cyclopropyl-methanol] | 100 to 1000 | 100 to 1000
13 | D (<0.01 μM) | COc1ccc(F)cc1-c1c[nH]c2ncc(-c3cnc(N)c(C(=O)N(C)C)n3)c(Cl)c12 [3-amino-6-[4-chloro-3-(5-fluoro-2-methoxy-phenyl)-1H-pyrrolo[2,3-b]pyridin-5-yl]-pyrazine-2-carboxylic acid dimethylamide] | 10 to 100 | < 10
14 | D (<0.01 μM) | CN(C)C(=O)c1cncc(-c2cnc3[nH]cc(-c4ccccc4Cl)c3c2Cl)c1 [5-[4-Chloro-3-(2-chloro-phenyl)-1H-pyrrolo[2,3-b]pyridin-5-yl]-N,N-dimethyl-nicotinamide] | > 1000 | 100 to 1000
15 | D (<0.01 μM) | Cn1nccc1C(O)c1cncc(-c2cnc3[nH]cc(-c4ccccc4F)c3c2Cl)c1 (stereo not drawn) [{5-[4-Chloro-3-(2-fluoro-phenyl)-1H-pyrrolo[2,3-b]pyridin-5-yl]-pyridin-3-yl}-(2-methyl-2H-pyrazol-3-yl)-methanol] | > 1000 | > 1000
16 | D (<0.01 μM) | COc1ncccc1-c1c[nH]c2ncc(-c3cnc(N)c(C(=O)N(C)C)c3)c(Cl)c12 [2-Amino-5-[4-chloro-3-(2-methoxy-pyridin-3-yl)-1H-pyrrolo[2,3-b]pyridin-5-yl]-N,N-dimethyl-nicotinamide] | 10 to 100 | 10 to 100
17 | D (<0.01 μM) | CN(C)C(=O)c1cc(-c2cnc3[nH]cc(-c4ccccc4F)c3c2Cl)cnc1N [2-Amino-5-[4-chloro-3-(2-fluoro-phenyl)-1H-pyrrolo[2,3-b]pyridin-5-yl]-N,N-dimethyl-nicotinamide] | 100 to 1000 | 100 to 1000
18 | D (<0.01 μM) | COc1ccccc1-c1c[nH]c2ncc(-c3cccc(C(=O)N(C)C)c3)c(Cl)c12 [3-[4-Chloro-3-(2-methoxy-phenyl)-1H-pyrrolo[2,3-b]pyridin-5-yl]-N,N-dimethyl-benzamide] | 10 to 100 | 10 to 100
19 | D (<0.01 μM) | COc1ccccc1-c1c[nH]c2ncc(-c3cncc(C(O)C(=O)N(C)C)c3)c(C#N)c12 (stereo not drawn) [2-{5-[4-Cyano-3-(2-methoxy-phenyl)-1H-pyrrolo[2,3-b]pyridin-5-yl]-pyridin-3-yl}-2-hydroxy-N,N-dimethyl-acetamide] | > 1000 | > 1000
20 | D (<0.01 μM) | COc1cc(F)c(F)cc1-c1c[nH]c2ncc(-c3cnc(N)c(C(=O)N(C)C)c3)c(Cl)c12 [2-Amino-5-[4-chloro-3-(4,5-difluoro-2-methoxy-phenyl)-1H-pyrrolo[2,3-b]pyridin-5-yl]-N,N-dimethyl-nicotinamide] | 10 to 100 | 10 to 100
21 | D (<0.01 μM) | OC(c1cncc(-c2cnc3[nH]cc(-c4ccccc4F)c3c2Cl)c1)c1ncccc1F (stereo not drawn) | 100 to 1000 | 100 to 1000
22 | D (<0.01 μM) | CN(C)C(=O)c1cc(-c2cnc3[nH]cc(-c4cccc(F)c4)c3c2Cl)cnc1N [2-Amino-5-[4-chloro-3-(3-fluoro-phenyl)-1H-pyrrolo[2,3-b]pyridin-5-yl]-N,N-dimethyl-nicotinamide] | 100 to 1000 | 100 to 1000
23 | C (0.1-0.01 μM) | CN(C)C(=O)c1cncc(-c2cnc3[nH]cc(-c4ccc(F)cc4)c3c2Cl)c1 | > 1000 | 100 to 1000
24 | D (<0.01 μM) | COc1ccccc1-c1c[nH]c2ncc(-c3cnc(N)c(C(=O)N(C)C)c3)c(Cl)c12 [2-Amino-5-[4-chloro-3-(2-methoxy-phenyl)-1H-pyrrolo[2,3-b]pyridin-5-yl]-N,N-dimethyl-nicotinamide] | < 10 | < 10
25 | D (<0.01 μM) | CN(C)C1CCN(C(=O)c2cc(-c3cnc4[nH]cc(-c5cccc(F)c5)c4c3Cl)cnc2N)C1 (stereo not drawn) [{2-Amino-5-[4-chloro-3-(3-fluoro-phenyl)-1H-pyrrolo[2,3-b]pyridin-5-yl]-pyridin-3-yl}-(3-dimethylamino-pyrrolidin-1-yl)-methanone] | 100 to 1000 | 100 to 1000

From patent US8158647B2, “Substituted pyrrolopyridines and pyrazolopyridines as kinase modulators” (SGX Pharmaceuticals, Inc., priority 2007, dated 2012)
